Data reported in publication PMC6010123, “Synthesis of chiral pyrazolo[4,3-e][1,2,4]triazine sulfonamides with tyrosinase and urease inhibitory activity” (Journal of Enzyme Inhibition and Medicinal Chemistry, 2016).
Where two headings read alike, the source gives them in different places.

Assays:
[1] = molecular target: T1, Jack bean urease (EC 3.5.1.5) (Canavalia ensiformis, UniProt P07374); assay: biochemical
T1 construct: purchased Sigma (St. Louis, MO, USA)

Jack bean urease = molecular target: T2, Jack bean urease (Canavalia ensiformis, UniProt P07374); assay: Kinetic study of urease inhibition (Lineweaver-Burk, secondary replot, Dixon plot); format: biochemical
T2 construct: purchased Sigma (St. Louis, MO, USA)
T2 sequence (P07374 whole entry, looked up): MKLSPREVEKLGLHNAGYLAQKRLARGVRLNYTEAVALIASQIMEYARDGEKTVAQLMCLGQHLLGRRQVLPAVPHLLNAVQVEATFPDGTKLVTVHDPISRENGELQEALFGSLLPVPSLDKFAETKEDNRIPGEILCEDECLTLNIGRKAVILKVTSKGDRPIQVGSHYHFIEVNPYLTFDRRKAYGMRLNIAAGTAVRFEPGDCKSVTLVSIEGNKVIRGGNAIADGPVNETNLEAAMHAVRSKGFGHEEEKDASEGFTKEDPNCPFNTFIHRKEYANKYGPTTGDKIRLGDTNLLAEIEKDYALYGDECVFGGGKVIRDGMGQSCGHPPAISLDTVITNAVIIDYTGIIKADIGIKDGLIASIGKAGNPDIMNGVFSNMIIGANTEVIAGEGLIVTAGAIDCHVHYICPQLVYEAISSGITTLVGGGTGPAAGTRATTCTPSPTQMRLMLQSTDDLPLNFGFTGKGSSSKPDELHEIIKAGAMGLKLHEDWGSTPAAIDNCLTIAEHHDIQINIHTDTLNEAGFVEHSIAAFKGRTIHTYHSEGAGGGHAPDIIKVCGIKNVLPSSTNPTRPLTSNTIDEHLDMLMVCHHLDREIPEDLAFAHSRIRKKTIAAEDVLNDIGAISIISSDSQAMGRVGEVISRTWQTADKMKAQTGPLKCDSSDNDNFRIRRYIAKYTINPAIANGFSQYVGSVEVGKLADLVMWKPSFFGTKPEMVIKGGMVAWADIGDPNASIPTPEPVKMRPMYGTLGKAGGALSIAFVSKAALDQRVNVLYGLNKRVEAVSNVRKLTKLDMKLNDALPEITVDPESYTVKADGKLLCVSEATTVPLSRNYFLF
Procedure: Urease inhibition was measured by varying the concentration of urea in the presence of different concentrations (0, 0.125, 0.25 and 0.5 μM) of compound 8a. Inhibitory constant (Ki) was determined as the intersection on the X-axis of the secondary replot of 1/V (y-intercept of Lineweaver–Burk plot) versus inhibitor concentrations and by Dixon plot of inverse of velocities (1/V) versus inhibitor concentrations. Briefly the urea concentration was changed from 3.12 to 100 mM for urease kinetics studies and remaining procedure was same as describes in urease inhibition assay protocol. Urease activity was determined by measuring ammonia production using the indophenol method as reported previously. The results (change in absorbance per min) were processed by using SoftMaxPro software(Molecular Devices Corporation Sunnyvale, CA) and a Dixon plot was constructed by plotting (1/V) versus inhibitor concentration [I].

mushroom tyrosinase = mushroom tyrosinase (Agaricus bisporus, UniProt C7FF04); assay: Kinetic study of mushroom tyrosinase inhibition (Lineweaver-Burk, secondary replot, Dixon plot); format: biochemical; details: substrate L-DOPA
mushroom tyrosinase, sequence (C7FF04 2-392): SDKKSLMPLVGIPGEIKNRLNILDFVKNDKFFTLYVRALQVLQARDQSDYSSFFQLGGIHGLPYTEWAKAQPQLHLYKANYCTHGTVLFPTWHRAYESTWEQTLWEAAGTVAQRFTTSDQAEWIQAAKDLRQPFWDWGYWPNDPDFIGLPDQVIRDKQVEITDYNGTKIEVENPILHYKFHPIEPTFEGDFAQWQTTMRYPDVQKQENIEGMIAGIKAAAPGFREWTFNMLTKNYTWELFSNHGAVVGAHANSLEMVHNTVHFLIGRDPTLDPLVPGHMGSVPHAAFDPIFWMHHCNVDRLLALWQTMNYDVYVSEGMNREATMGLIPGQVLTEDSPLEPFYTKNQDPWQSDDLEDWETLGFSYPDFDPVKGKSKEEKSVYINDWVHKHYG
Procedure: Lineweaver–Burk plots of 1/absorbance versus 1/L-DOPA and 1/absorbance versus 1/Urea were used to determine the type of enzyme inhibition. A series of experiments were performed to determine the inhibition kinetics by following method[18] ^, [28] ^, [29]. Different inhibitor concentrations of compound 8b with 0, 15, 30, 61, 123 and 247 μM, 8j with 0, 14, 28 and 55.8 μM, respectively were used in case of mushroom tyrosinase inhibition. Substrate L-DOPA concentration was between 0.062 and 2 mM in all tyrosinase kinetic study. Pre-incubation and measurement time was the same as discussed in mushroom tyrosinase inhibition assay protocol. Maximal initial velocity was determined from initial linear portion of absorbance up to five minutes after addition of enzyme at a 30 s interval. The inhibition type on the enzyme was assayed by Lineweaver–Burk plots of inverse of velocities (1/V) versus inverse of substrate concentration 1/[S] mM ^− ^1, and the inhibition constant Ki was determined by two methods, by secondary replot of 1/V (y-intercept of Lineweaver–Burk plot) versus inhibitor concentrations and by Dixon plot of inverse of velocities (1/V) versus inhibitor concentrations.

T1 sequence (P07374 whole entry, looked up): as the sequence (P07374 whole entry, looked up) above

| SMILES | IC50 [1] [nM] | other results |
| --- | --- | --- |
| CCOc1ccc(S(=O)(=O)N[C@@H](C)CO)cc1-c1nnc2c(n1)c(C)nn2C [8a, (S)-3-(1,3-dimethyl-1H-pyrazolo[4,3-e][1,2,4]triazin-5-yl)-4-ethoxy-N-(1-hydroxy-propan-2-yl)benzenesulfonamide] | 37 ± 3 | Ki (Jack bean urease): 10 nM; Urease type of inhibition (Jack bean urease; Lineweaver-Burk plot, substrate urea): Mixed type |
| CCOc1ccc(S(=O)(=O)N[C@H](C)CO)cc1-c1nnc2c(n1)c(C)nn2C [8b, (R)-3-(1,3-dimethyl-1H-pyrazolo[4,3-e][1,2,4]triazin-5-yl)-4-ethoxy-N-(1-hydroxy-propan-2-yl)benzenesulfonamide] | 84 ± 20 | Mushroom tyrosinase type of inhibition (mushroom tyrosinase): Noncompetitive |
| CCOc1ccc(S(=O)(=O)N[C@H](CO)C(C)C)cc1-c1nnc2c(n1)c(C)nn2C [8c, (S)-3-(1,3-dimethyl-1H-pyrazolo[4,3-e][1,2,4]triazin-5-yl)-4-ethoxy-N-(1-hydroxy-3-methylbutan-2-yl)benzenesulfonamide] | 78 ± 20 | – |
| CCOc1ccc(S(=O)(=O)N[C@@H](CO)C(C)C)cc1-c1nnc2c(n1)c(C)nn2C [8d, (R)-3-(1,3-dimethyl-1H-pyrazolo[4,3-e][1,2,4]triazin-5-yl)-4-ethoxy-N-(1-hydroxy-3-methylbutan-2-yl)benzenesulfonamide] | 64 ± 20 | – |
| CCOc1ccc(S(=O)(=O)NC[C@H](C)O)cc1-c1nnc2c(n1)c(C)nn2C [8e, (S)-3-(1,3-dimethyl-1H-pyrazolo[4,3-e][1,2,4]triazin-5-yl)-4-ethoxy-N-(2-hydroxy-propyl)-benzenesulfonamide] | 76 ± 7 | – |
| CCOc1ccc(S(=O)(=O)NC[C@@H](C)O)cc1-c1nnc2c(n1)c(C)nn2C [8f, (R)-3-(1,3-dimethyl-1H-pyrazolo[4,3-e][1,2,4]triazin-5-yl)-4-ethoxy-N-(2-hydroxy-propyl)-benzenesulfonamide] | – | IC50 ([1]; read-out: Urease IC50, Jack bean urease, 100 mM urea, pH 8.2, 37 °C): 44 ± 130 nM |
| CCOc1ccc(S(=O)(=O)NC[C@H](O)CO)cc1-c1nnc2c(n1)c(C)nn2C [8g, (S)-N-(2,3-dihydroxypropyl)-3-(1,3-dimethyl-1H-pyrazolo[4,3-e][1,2,4]triazin-5-yl)-4-ethoxybenzenesulfonamide] | 63 ± 16 | – |
| CCOc1ccc(S(=O)(=O)NC[C@@H](O)CO)cc1-c1nnc2c(n1)c(C)nn2C [8h, (R)-N-(2,3-dihydroxypropyl)-3-(1,3-dimethyl-1H-pyrazolo[4,3-e][1,2,4]triazin-5-yl)-4-ethoxybenzenesulfonamide] | 80 ± 14 | – |
| CCOc1ccc(S(=O)(=O)N[C@H](CO)CC(C)C)cc1-c1nnc2c(n1)c(C)nn2C [8i, (S)-3-(1,3-dimethyl-1H-pyrazolo[4,3-e][1,2,4]triazin-5-yl)-4-ethoxy-N-(1-hydroxy-4-methylpentan-2-yl)benzenesulfonamide] | 42 ± 12 | – |
| CCOc1ccc(S(=O)(=O)N[C@@H](CO)CC(C)C)cc1-c1nnc2c(n1)c(C)nn2C [8j, (R)-3-(1,3-dimethyl-1H-pyrazolo[4,3-e][1,2,4]triazin-5-yl)-4-ethoxy-N-(1-hydroxy-4-methylpentan-2-yl)benzenesulfonamide] | 80 ± 15 | Mushroom tyrosinase type of inhibition (mushroom tyrosinase): Mixed type |
| NC(N)=S [Thio-Urea, thiourea, reference compound] | – | IC50 ([1]; Jack bean urease, 100 mM urea, pH 8.2, 37 °C, read-out: Urease IC50): 20700 ± 450 nM |
